Source: patent US20100298141A1, “SUBSTITUTED PYRIDINE N-OXIDE HERBICIDES” (E. I. DU PONT DE NEMOURS AND COMPANY, priority 2007, published 2010)

Tests used:
morningglory [1] = assay: Test A pre-/postemergence greenhouse test; format: in vivo, Ipomoea spp.; details: for Plant response rating, Morningglory: 0 to 100 scale where 0 is no effect and 100 is complete control; for Morningglory plant response rating: 0 to 100 scale
How it was run: (§1)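 Pots of loam–sand soil sown with the test species are sprayed preemergence on the soil surface; emerged seedlings (1–2 leaves, 2–10 cm) are sprayed postemergence at the same time. The vehicle is a non-phytotoxic solvent mixture with surfactant. Injury is scored visually after ~10 d in greenhouse.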

wheat = assay: Test C pre-/postemergence test; format: in vivo, Triticum aestivum
How it was run: (§2)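 Seeds were planted and treated preemergence with test chemical in a non-phytotoxic solvent mixture containing surfactant. Postemergence applications of the same formulation went onto plants 2 to 18 cm tall (1- to 4-leaf stage). A dash marks no test result.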

barnyardgrass = assay: Test A pre-/postemergence greenhouse test; format: in vivo, Echinochloa crus-galli; details: for Plant response rating, Barnyardgrass: 0 to 100 scale where 0 is no effect and 100 is complete control; for Barnyardgrass plant response rating: 0 to 100 scale
How it was run: as §1

[2] = tested on: common (oilseed) sunflower; assay: Test C pre-/postemergence test; format: in vivo, Helianthus annuus
How it was run: as §2

cocklebur = assay: Test C pre-/postemergence test; format: in vivo, Xanthium strumarium; details: for Plant response rating, Cocklebur: scale 0 to 100, 0 no effect, 100 complete control
How it was run: as §2

woolly cupgrass = assay: Test C pre-/postemergence test; format: in vivo, Eriochloa villosa
How it was run: as §2

blackgrass = assay: Test C pre-/postemergence test; format: in vivo, Alopecurus myosuroides
How it was run: as §2

kochia = assay: Test C pre-/postemergence test; format: in vivo, Kochia scoparia
How it was run: as §2

crabgrass = assay: Test C pre-/postemergence test; format: in vivo, Digitaria sanguinalis
How it was run: as §2

corn = assay: Test C pre-/postemergence test; format: in vivo, Zea mays
How it was run: as §2

soybean = assay: Test C pre-/postemergence test; format: in vivo, Glycine max
How it was run: as §2

morningglory [3] = assay: Test C pre-/postemergence test; format: in vivo, Ipomoea coccinea
How it was run: as §2

umbrella sedge = assay: Test C flooded paddy test; format: in vivo, Cyperus difformis; details: Flood
How it was run: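 Under a constant 3 cm flood, test compounds went directly into the paddy water. Following 13 to 15 days of greenhouse growth, treated species and controls were compared by eye.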

green foxtail = assay: Test C pre-/postemergence test; format: in vivo, Setaria viridis
How it was run: as §2

yellow nutsedge = assay: Test C pre-/postemergence test; format: in vivo, Cyperus esculentus
How it was run: as §2

Italian ryegrass = assay: Test C pre-/postemergence test; format: in vivo, Lolium multiflorum
How it was run: as §2

pigweed = assay: Test C pre-/postemergence test; format: in vivo, Amaranthus retroflexus
How it was run: as §2

[4] = Postemergence, 500 g ai/ha, 0 is no effect, 100 is complete control
[5] = Preemergence, 125 g ai/ha, 0 no effect, 100 complete control
[6] = 62 g ai/ha, Preemergence, scale 0 to 100
[7] = 125 g ai/ha, preemergence, scale 0 (no effect) to 100 (complete control)
[8] = Postemergence, 125 g ai/ha, scale 0 to 100, 0 no effect, 100 complete control
[9] = Postemergence, 250 g ai/ha, scale 0 to 100, 0 no effect, 100 complete control
[10] = Preemergence, 31 g ai/ha, scale 0 to 100 (0 no effect, 100 complete control)
[11] = preemergence, 250 g ai/ha, scale 0 (no effect) to 100 (complete control)
[12] = Postemergence, 62 g ai/ha, scale 0 to 100, 0 no effect, 100 complete control

Compound: CCn1nc(C(F)(F)F)c(C[S+]([O-])c2cccc[n+]2[O-])c1OCC(F)(F)F (racemic) [Compound 65]
- Plant response rating, Morningglory (morningglory [1]; Postemergence, 125 g ai/ha): 60
- Morningglory plant response rating (morningglory [1]; [4]): 90
- Morningglory plant response rating (morningglory [1]; [5]): 60
- Plant response rating, Morningglory (morningglory [1]; Preemergence, 500 g ai/ha): 100
- Wheat plant response rating (wheat; [6]): 80
- Wheat plant response rating (wheat; [7]): 100
- Plant response rating (0 to 100), Wheat (wheat; Postemergence, 31 g ai/ha): 0
- Plant response rating (0 to 100), Wheat (wheat; Postemergence, 62 g ai/ha): 0
- Plant response rating, Wheat (wheat; [8]): 25
- Plant response rating, Wheat (wheat; [9]): 30
- Plant response rating, Wheat (wheat; [10]): 50
- Wheat plant response rating (wheat; [11]): 100
- Plant response rating, Barnyardgrass (barnyardgrass; Postemergence, 125 g ai/ha): 90
- Barnyardgrass plant response rating (barnyardgrass; [4]): 90
- Barnyardgrass plant response rating (barnyardgrass; [5]): 80
- Plant response rating, Barnyardgrass (barnyardgrass; Preemergence, 500 g ai/ha): 100
- Sunflower plant response rating [2, 6]: 50
- Sunflower plant response rating [2, 7]: 100
- Plant response rating, Sunflower [2, 10]: 45
- Cocklebur plant response rating (cocklebur; [6]): 0
- Plant response rating (0 to 100), Cocklebur (cocklebur; Postemergence, 31 g ai/ha): 0
- Plant response rating, Cocklebur (cocklebur; Postemergence, 62 g ai/ha): 0
- Plant response rating, Cocklebur (cocklebur; Postemergence, 125 g ai/ha): 0
- Plant response rating, Cocklebur (cocklebur; Postemergence, 250 g ai/ha): 0
- Cocklebur plant response rating (cocklebur; [11]): 90
- Cupgrass, Woolly plant response rating (woolly cupgrass; [6]): 40
- Cupgrass, Woolly plant response rating (woolly cupgrass; [7]): 100
- Plant response rating (0 to 100), Cupgrass, Woolly (woolly cupgrass; Postemergence, 31 g ai/ha): 0
- Plant response rating, Cupgrass, Woolly (woolly cupgrass; [12]): 0
- Plant response rating, Cupgrass, Woolly (woolly cupgrass; [8]): 0
- Plant response rating, Cupgrass, Woolly (woolly cupgrass; [9]): 40
- Plant response rating, Cupgrass, Woolly (woolly cupgrass; [10]): 40
- Cupgrass, Woolly plant response rating (woolly cupgrass; [11]): 100
- Blackgrass plant response rating (blackgrass; [6]): 100
- Blackgrass plant response rating (blackgrass; [7]): 100
- Plant response rating (0 to 100), Blackgrass (blackgrass; Postemergence, 31 g ai/ha): 0
- Plant response rating, Blackgrass (blackgrass; [12]): 30
- Plant response rating, Blackgrass (blackgrass; [9]): 30
- Plant response rating, Blackgrass (blackgrass; [10]): 100
- Blackgrass plant response rating (blackgrass; [11]): 100
- Kochia plant response rating (kochia; [6]): 100
- Kochia plant response rating (kochia; [7]): 100
- Plant response rating (0 to 100), Kochia (kochia; Postemergence, 31 g ai/ha): 0
- Plant response rating, Kochia (kochia; [12]): 0
- Plant response rating, Kochia (kochia; [8]): 0
- Plant response rating, Kochia (kochia; [9]): 0
- Plant response rating, Kochia (kochia; [10]): 100
- Kochia plant response rating (kochia; [11]): 100
- Crabgrass, Large plant response rating (crabgrass; [6]): 100
- Crabgrass, Large plant response rating (crabgrass; [7]): 100
- Plant response rating (0 to 100), Crabgrass, Large (crabgrass; Postemergence, 31 g ai/ha): 0
- Plant response rating, Crabgrass, Large (crabgrass; [12]): 0
- Plant response rating, Crabgrass, Large (crabgrass; [8]): 0
- Plant response rating, Crabgrass, Large (crabgrass; [9]): 60
- Plant response rating, Crabgrass, Large (crabgrass; [10]): 60
- Crabgrass, Large plant response rating (crabgrass; [11]): 100
- Corn plant response rating (corn; [6]): 100
- Corn plant response rating (corn; [7]): 100
- Plant response rating (0 to 100), Corn (corn; Postemergence, 31 g ai/ha): 0
- Plant response rating, Corn (corn; [12]): 0
- Plant response rating, Corn (corn; [8]): 50
- Plant response rating, Corn (corn; [10]): 70
- Corn plant response rating (corn; [11]): 100
- Plant response rating (0 to 100), Soybean (soybean; Postemergence, 31 g ai/ha): 20
- Plant response rating (0 to 100), Soybean (soybean; Postemergence, 62 g ai/ha): 50
- Plant response rating, Soybean (soybean; [8]): 60
- Plant response rating, Soybean (soybean; [9]): 90
- Plant response rating, Soybean (soybean; [10]): 5
- Morningglory plant response rating (morningglory [3]; [6]): 0
- Plant response rating (0 to 100), Morningglory (morningglory [3]; Postemergence, 31 g ai/ha): 0
- Plant response rating, Morningglory (morningglory [3]; [12]): 0
- Plant response rating, Morningglory (morningglory [3]; [8]): 0
- Plant response rating, Morningglory (morningglory [3]; [9]): 0
- Plant response rating, Morningglory (morningglory [3]; [10]): 0
- Morningglory plant response rating (morningglory [3]; [11]): 75
- Plant response rating, Sedge, Umbrella (umbrella sedge; 62 g ai/ha, scale 0 to 100 (0 no effect, 100 complete control)): 60
- Plant response rating, Sedge, Umbrella (umbrella sedge; 250 g ai/ha, scale 0 to 100, 0 no effect, 100 complete control, 13 to 15 days): 100
- Foxtail, Green plant response rating (green foxtail; [6]): 100
- Foxtail, Green plant response rating (green foxtail; [7]): 100
- Plant response rating (0 to 100), Foxtail, Green (green foxtail; Postemergence, 31 g ai/ha): 5
- Plant response rating, Foxtail, Green (green foxtail; [12]): 50
- Plant response rating, Foxtail, Green (green foxtail; [8]): 80
- Plant response rating, Foxtail, Green (green foxtail; [9]): 90
- Plant response rating, Foxtail, Green (green foxtail; [10]): 90
- Foxtail, Green plant response rating (green foxtail; [11]): 100
- Nutsedge, Yellow plant response rating (yellow nutsedge; [6]): 40
- Nutsedge, Yellow plant response rating (yellow nutsedge; [7]): 50
- Plant response rating (0 to 100), Nutsedge, Yellow (yellow nutsedge; Postemergence, 31 g ai/ha): 0
- Plant response rating, Nutsedge, Yellow (yellow nutsedge; [12]): 0
- Plant response rating, Nutsedge, Yellow (yellow nutsedge; [8]): 0
- Plant response rating, Nutsedge, Yellow (yellow nutsedge; [9]): 0
- Plant response rating, Nutsedge, Yellow (yellow nutsedge; [10]): 0
- Nutsedge, Yellow plant response rating (yellow nutsedge; [11]): 60
- Ryegrass, Italian plant response rating (Italian ryegrass; [6]): 100
- Ryegrass, Italian plant response rating (Italian ryegrass; [7]): 100
- Plant response rating (0 to 100), Ryegrass, Italian (Italian ryegrass; Postemergence, 31 g ai/ha): 0
- Plant response rating (0 to 100), Ryegrass, Italian (Italian ryegrass; Postemergence, 62 g ai/ha): 0
- Plant response rating, Ryegrass, Italian (Italian ryegrass; [8]): 90
- Plant response rating, Ryegrass, Italian (Italian ryegrass; [9]): 95
- Plant response rating, Ryegrass, Italian (Italian ryegrass; [10]): 50
- Ryegrass, Italian plant response rating (Italian ryegrass; [11]): 100
- Pigweed plant response rating (pigweed; [6]): 85
- Plant response rating (0 to 100), Pigweed (pigweed; Postemergence, 31 g ai/ha): 0
- Plant response rating (0 to 100), Pigweed (pigweed; Postemergence, 62 g ai/ha): 0
- Plant response rating, Pigweed (pigweed; [8]): 0
- Plant response rating, Pigweed (pigweed; [9]): 5
- Plant response rating, Pigweed (pigweed; [10]): 85
- Pigweed plant response rating (pigweed; [11]): 100
